# According to patent publication US10112974B2, “Method for the production of 18F-labeled active esters and their application exemplified by the preparation of a PSMA-specific PET-tracer” (Max-Planck-Gesellschaft zur Foerderung der Wissenschaften …, priority 2014, dated 2018):
# Tests used:
# [1] = Storage and solution stability of iodonium iodide 22; type: physicochemical
# [2] = test system: PSMA positive prostate tumor xenografts; settings: PSMA positive prostate tumor xenografts in mice; clear delineation; cited from earlier work
# [3] = test system: LNCaP-C4-2 prostate tumor cells
# Procedure: Five 8-week-old male C.B-Igh-1b/IcrTac-Prkdcscid mice (Taconic) were injected subcutaneously in the neck region with 4×10^6 LNCaP-C4-2 prostate tumor cells. […] The first PET measurement was immediately followed by a CT scan during which the animal was left in the same position. Both tracers were injected i.v. through the lateral tail vein ([^18F]1-10: 21-32 MBq; [^68Ga]HBED-CC: 19-33 MBq, on two consecutive days). Emission data collection started 60 min after injection and lasted 45 min. Image reconstruction was performed using Fourier rebinning and an ordered subset expectation maximization (3D-OSEM) procedure, yielding images with voxel sizes of 0.78×0.78×0.80 mm. Image analysis was performed with VINCI 4.0 (MPI for Metabolism Research, Cologne, Germany). Tracer uptake in the tumor as well as liver, kidney, and background was determined using volumes of interest (VOIs) covering the respective structure. Significant differences were assessed using two-way repeated measures ANOVA with factors “structure” and “tracer”, followed by Holm-Sidak post hoc comparison. Tumor sizes were measured by drawing accurate tumor VOIs in the CT images, and extracting VOI volume. Tracer uptake was correlated tumor size using the Pearson correlation test.
SMILES,"stability in solution ([1]; in solution, especially at elevated temperatures, in DMF or DMSO already at ambient temperature)",storage stability ([1]; stored at 4° C. under argon),tumor to background ratio [2],"tumor tracer uptake ([3]; PET 60 min after i.v. injection, 45 min emission, LNCaP-C4-2 xenograft mice, tumor VOI)","Signal-to-noise ratio (tumor versus background) ([3]; PET 60 min after i.v. injection, LNCaP-C4-2 xenograft mice)","uptake in the kidney ([3]; PET 60 min after i.v. injection, kidney VOI)","liver uptake ([3]; PET 60 min after i.v. injection, liver VOI)",imaging characteristics compared to [^68Ga]HBED-CC (50) ([3]; PSMA^+ PCa mice model),kidney uptake compared to [^68Ga]HBED-CC (50) ([3]; PSMA^+ PCa mice model)
"COc1ccc([I+]c2ccc(C(=O)Oc3c(F)c(F)cc(F)c3F)cc2)cc1.[I-] [Compound 22, (4-Methoxyphenyl) [4-(2,3,5,6-tetrafluorophenoxycarbonyl)phenyl]iodonium iodide]",unstable,≥ 4 months,–,–,–,–,–,–,–
"O=C(O)CCC(NC(=O)NC(CCCCNC(=O)c1ccc([18F])nc1)C(=O)O)C(=O)O (stereo not drawn) [[^18F]1-10, 2-(3-{1-carboxy-5-[(6-[^18F]fluoro-pyridine-3-carbonyl)-amino]-pentyl}-ureido)-pentanedioic acid]",–,–,excellent,1.4±1.7 % ID/g,5.9±4.2,3.0±1.9 % ID/g,1.1±0.5 % ID/g,nearly identical,much lower
